This is an account of results in paper PMC8119482, “A novel dual HDAC and HSP90 inhibitor, MPT0G449, downregulates oncogenic pathways in human acute leukemia in vitro and in vivo” (Oncogenesis, 2021).

In the assay the target is T1, HDAC6 (Homo sapiens, UniProt Q9UBN7).
T1 sequence (Q9UBN7 1-1215): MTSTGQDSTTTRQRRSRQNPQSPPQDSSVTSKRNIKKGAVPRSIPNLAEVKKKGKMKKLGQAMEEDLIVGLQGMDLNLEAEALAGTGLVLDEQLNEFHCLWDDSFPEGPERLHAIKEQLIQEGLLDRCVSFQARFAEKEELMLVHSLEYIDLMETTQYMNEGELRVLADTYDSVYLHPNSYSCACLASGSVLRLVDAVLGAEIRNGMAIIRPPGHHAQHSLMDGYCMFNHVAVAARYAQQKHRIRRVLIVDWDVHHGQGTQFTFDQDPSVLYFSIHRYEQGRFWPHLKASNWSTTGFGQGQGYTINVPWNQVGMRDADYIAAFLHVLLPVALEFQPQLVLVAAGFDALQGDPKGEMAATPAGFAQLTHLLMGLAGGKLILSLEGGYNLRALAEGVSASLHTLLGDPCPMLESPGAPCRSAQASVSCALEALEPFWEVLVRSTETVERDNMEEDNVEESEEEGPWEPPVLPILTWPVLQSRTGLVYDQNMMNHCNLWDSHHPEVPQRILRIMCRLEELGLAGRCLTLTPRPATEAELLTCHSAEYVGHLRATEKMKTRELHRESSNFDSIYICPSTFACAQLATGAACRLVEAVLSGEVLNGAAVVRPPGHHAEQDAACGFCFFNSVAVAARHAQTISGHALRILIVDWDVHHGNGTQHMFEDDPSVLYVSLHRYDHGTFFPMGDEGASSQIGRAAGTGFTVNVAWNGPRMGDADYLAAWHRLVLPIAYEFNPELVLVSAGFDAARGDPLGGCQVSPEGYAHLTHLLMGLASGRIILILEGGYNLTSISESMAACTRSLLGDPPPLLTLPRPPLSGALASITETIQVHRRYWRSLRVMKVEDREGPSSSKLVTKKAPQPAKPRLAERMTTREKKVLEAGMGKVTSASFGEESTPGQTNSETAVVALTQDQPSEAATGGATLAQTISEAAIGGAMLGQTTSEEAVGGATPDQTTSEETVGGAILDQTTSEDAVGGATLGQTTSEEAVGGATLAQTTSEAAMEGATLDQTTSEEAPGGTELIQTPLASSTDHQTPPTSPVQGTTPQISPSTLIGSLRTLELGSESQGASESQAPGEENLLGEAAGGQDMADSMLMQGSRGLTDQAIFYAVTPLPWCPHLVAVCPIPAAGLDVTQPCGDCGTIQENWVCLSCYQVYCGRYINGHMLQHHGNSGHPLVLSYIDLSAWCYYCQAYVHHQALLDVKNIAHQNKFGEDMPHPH
As to the kind of experiment: HDAC isoform activity assay (Reaction Biology Corp.); values not shown in main text. The format is biochemical.

Consider `CC(C)c1cc(C(=O)N(C)c2ccc(NC(=O)CCCCCCCC(=O)NO)cc2)c(O)cc1O` [compound 26, MPT0G449], for which the “HDAC isoform activity assay (Reaction Biology Corp.); values not shown in main t” value was “HDAC6 was selected because MPT0G499 exhibited the most potent inhibition”.
